Results reported in patent publication US20150247149A1, “Detecting and Treating Liver Damage” (The Regents of the University of California, priority 2012, published 2015).

Tests used:
VNN1 = VNN1 expression in HepG2 and HepG2-derived MPs (Western blotting, flow cytometry, QPCR); format: cell-based, human; details: HepG2 exposed to 0.25 mM FFA
Method: HepG2 were trypsinized and 8×10^5 cells were seeded in a 6-well plate. To knockdown VNN1 or PPARα in hepatocytes, HepG2 were incubated with 50 nM of silencing RNA (siRNA) for VNN1 or PPARα and control siRNA (Ctrl siRNA) dissolved in Lipofectamine 2000 (Life Technologies, Carlsbad, Calif., USA). Transfection was performed according to the manufacturer instructions. After 48 h post transfection, cells were treated with 0.25 mM of palmitic acid for 24 h and microparticles were isolated from the supernatant by ultracentrifugation. The efficiency of transfection has been confirmed in hepatocytes and microparticles by Western blotting as described in the “Protein analysis” paragraph. […] In vivo VNN1 knockdown experiments during experimental NASH were assessed by weekly injection of VNN1 stealthRNA (Life Technology), control siRNA (Ctrl siRNA) or PBS as vehicle (mock) in C57BL/6 mice fed with the MCD diet for 6 weeks. […]
Tissue (liver, intestine, spleen and kidney) from MCD- and MCS-fed mice (Casp-3−/−, WT, treated with VNN1 siRNA and controls) was homogenized using the FastPrep 24 bead homogenization system. […] The concentration and purity of RNA was assessed by NanoDrop (Thermo Scientific). Quantitative Real time PCR was performed on a BioRad Cycler (BioRad) by using SYBRGreen real time PCR master mix (Kapabiosystem, Woburn, Mass., USA) according to the manufacturer instructions. […]

HUVECs = test: HUVEC migration (Boyden's chamber chemotaxis, wound healing); format: cell-based, human; details: supernatants from hepatocytes incubated with FFA up to 24 h; VEGF-A positive control
Method: In vitro migration studies have been performed by using human umbilical cell endothelial cells (HUVECs). Wound healing assay was performed to analyze chemokinesis (non-oriented migration) by using collagen-coated 6-well culture plate, where a silicon elastomer (PDMS) strip was placed vertically to the bottom of every well to create the artificial wound. HUVECs were plated and grown until reaching the complete confluence. HUVECs were treated with EBM-2 supplemented with 100 ng/mL of VEGF (Peprotech, Rocky Hill, N.J., USA), hepatocytes-derived MPs, MP-free supernatant or supernatant collected after 24 hours of treatment with FFAs. The strips were removed carefully and migration of cells was detected by a confocal microscope, capturing one picture per field every 10 minutes for 48 hours. Mitomycin (1 μg/ml) was used to inhibit cell proliferation during wound healing assay. Data were analyzed by using Wimscratch software (Wimasis, Munich, Germany) in order to get the total cell-covered area (pixel). Boyden's chamber assay was performed to analyze chemotaxis (oriented migration) by using cell culture inserts 8 μm pore size (Millipore, Billerica, Mass., USA) and 24-well plate. Each well was filled with 500 μl of serum free EBM-2 media in presence or absence of the following chemoattractants: 100 ng/mL VEGF; hepatocytes-derived MPs; MP-free supernatant or conditioned supernatant. The inserts were placed on top of each well and 150 μl of cell suspension (5×10^4 cells) was added. Plates were incubated overnight at 37° C., and then the filters were removed and stained with Vectashield mounting medium with 4′,6-diamino-2-phenylindole (DAPI) (Vector Labs, Burlingame, Calif., USA).
Migrated cells were detected with a fluorescence microscope and number per field of their nuclei was counted. For the ex vivo studies, PFP isolated from different groups of mice (chow, HF/HCarb, MCD fed mice and mice injected with control siRNA, VNN1 siRNA or PBS as vehicle) were ultracentrifuged at 100,000 g for 1 h at 10° C. to pellet the blood MPs.

Row | Compound | VNN1 expression in MPs from FFA-treated cells (Western blot) (VNN1) | endothelial cell oriented (chemotaxis) and non-oriented migration induced by cell-free supernatants of FFA-treated hepatocytes (HUVECs)
1 | CCCCCCCC/C=C\CCCCCCCC(=O)O [oleic acid] | not | not
2 | CCCCCCCCCCCCCCCC(=O)O [palmitic acid] | expressed | marked increase
